Laboratory results from BindingDB's records for doi:10.1021/acs.jmedchem.0c00377 (Huazhong University of Science and Technology, 2020).

Key:
[1] = Binding affinity to recombinant TNFalpha (unknown origin) expressed in Escherichia coli BL21 (DE3) assessed as Kd for TNF-alpha-TNFR1 binding at 100 uM pe-incubated for 15 mins before TNFR1 addition and measured after 15 mins by MST assay (Rvb = 0.23 uM)
[2] = Binding affinity to recombinant TNFalpha (unknown origin) expressed in Escherichia coli BL21 (DE3) assessed as Kd for TNF-alpha-TNFR1 binding at 10 uM pe-incubated for 15 mins before TNFR1 addition and measured after 15 mins by MST assay (Rvb = 0.23 uM)

- Kd [1]: 19.6 µM
- Kd [2]: 4.26 µM
SMILES: O=C1C[C@H](Nc2ncnc3[nH]cnc23)CN1Cc1ccccc1
